This passage reports remaining target (mRNA or protein) (fraction of control) results from the OligoGym collection.

Values joined by “and” are separate entries in the source; they are usually repeats but may differ in a detail not shown here. Equal values may be shown once. These antisense oligonucleotides have a phosphorothioate backbone; sugars and methylation of C are not fully specified. A value given as a limit tells only on which side of the number the result lay.
Note: test concentration or dose not given here.

The first data set has as its target DUSP8. The settings on record: ASO.
With AAGCTGTCTGCGGCCAGCAC, the remaining target (mRNA or protein) (fraction of control) is 0.71.

ACCTGGCTGCGTGCAGCCGG: the remaining target (mRNA or protein) (fraction of control) was at least 1. Consider AGAGCGGGAGATGCCAGCCA, for which the remaining target (mRNA or protein) (fraction of control) worked out at 0.32. As to AGAGGTGAGGCAGGATGCGG, the remaining target (mRNA or protein) (fraction of control) is at least 1. Take AGCAGATGTTGACGGAGCTG: the remaining target (mRNA or protein) (fraction of control) is at least 1. In the case of AGCTGGCCCAGGAAGTTGAA, the remaining target (mRNA or protein) (fraction of control) was found to be 0.95. The same measure, in the same setting: the figure for AGGAGAGGTGCAGGCCGCGC is 0.91; for ATCAGATCCTTGTTTAGGAC it is at least 1. Still for that read-out and setting: with CACCATGCCCTCCTCGAACT the figure was 0.84; with CAGGCTTGCCCTCGCAGAGG, at least 1.

Another data set addresses MAP2K1. The settings on record: ASO.
In turn, AACCAGAAGTCTACAGAT came in with a remaining target (mRNA or protein) (fraction of control) of 0.69. On the same count and under the same terms, the figure for AAGAGTAGAATCTTGGCA is 0.9; for AAGGATTTTCATACAATT it is 0.7. The same measure, in the same setting: the figure for ACTAAGTATCCCACACAG is 0.16. Still for that read-out and setting: the figure for AGCAGCATGGGTTGGTGT is 0.41. AGGAGGCCCAAAAGCGAC gave a remaining target (mRNA or protein) (fraction of control) of 0.65. On the same count and under the same terms, the figure for AGGCCGATGGTGGAGCAG is 0.14. On to AGTCACAGAGCTTGATCT, for which the remaining target (mRNA or protein) (fraction of control) came out at 0.31. Same read-out and setting: the figure for AGTCGATGAGCTGCCCGC is 0.24; for ATTAAGCATTTATTCACA it is at least 1.

CAAAATCCACTTCCTCAG: the remaining target (mRNA or protein) (fraction of control) turned out to be 0.28. Take CACCCAAACATCAGCTCC: the remaining target (mRNA or protein) (fraction of control) is 0.41. The same measure, in the same setting: the figure for CATCTGGAGGAGGGATGG is 0.71; for CATGAACCATGAGTTGCT it is 0.24.

As for CCCAGCTCACTGATCTTC, the remaining target (mRNA or protein) (fraction of control) is 0.89. On the same count and under the same terms, with CTACCCACATTCACCAAA the figure was 0.72.

In turn, CTAGGATGTTGGAGGGCT returned a remaining target (mRNA or protein) (fraction of control) of 0.27. On the same count and under the same terms, the figure for CTCTGTGCATGATCTTGT is 0.51; for CTCTTTGTTGCTTCCCAA it is 0.38. Still for that read-out and setting: with CTGACTGCACAGAGTAAT the figure was 0.2; with GAAGGATCTCACAAGGCT, 0.27.

Take GAGTTCTACATGAAAAGC: the remaining target (mRNA or protein) (fraction of control) came out at 0.66.

In turn, GCAGTTTTGGAGGAGGCT displayed a remaining target (mRNA or protein) (fraction of control) of 0.32. Same read-out and setting: with GCTTGTGGGAGACCTTGA the figure was 0.65; with GGCCTTTTATTACAGCAA, 0.5. The same measure, in the same setting: with GGCGTCGGCTTCTTCTTG the figure was 0.3; with GTAATCCAACAACTCAAA, 0.79. Same read-out and setting: the figure for GTACGGAGAGTTGCACTC is 0.25; for GTTGGTCTCCGCAGAGCT it is 0.37. TAACGCGCTTCCAACTCC yielded a remaining target (mRNA or protein) (fraction of control) of 0.3. In turn, TACAACAGCATTGGTACT came in with a remaining target (mRNA or protein) (fraction of control) of 0.23. On the same count and under the same terms, the figure for TACCAGAGACAGTCCCAT is 0.24. Still for that read-out and setting: with TCTCAGCCGCATCTCCTT the figure was 0.13; with TCTCGCTTCCTCCCTCGT, 0.74; with TCTGCTTCTGGGTAAGAA, at least 1. In the case of TGAAGCCCCAGCTATCAT, the remaining target (mRNA or protein) (fraction of control) turned out to be 0.41. With TGCAGATACTGATCTCGC, the remaining target (mRNA or protein) (fraction of control) amounted to 0.29. On the same count and under the same terms, the figure for TGGAGTCTTTCTGGCGAC is 0.44; for TTCCAGCTTTCTTCAGGA it is 0.58.

For another data set, the target named is PIK3CB. The settings on record: ASO.
In turn, AACATTTGGAGTGTCAACAT showed a remaining target (mRNA or protein) (fraction of control) of at least 1. Consider AAGTTTTCAGGGATGGATGG, for which the remaining target (mRNA or protein) (fraction of control) was at least 1.

Sequence AATTGTGAACTTGCTTCCAT had a remaining target (mRNA or protein) (fraction of control) of 0.74. Same read-out and setting: the figure for ACCAGCCCTGACATGAACTT is 0.45; for ACTATGTCTGTCACCAATCC it is 0.52. On the same count and under the same terms, the figure for ACTGGATATAAATCCCAGTG is at least 1. The sequence AGGTATGGAGCCATCAGATG came in with a remaining target (mRNA or protein) (fraction of control) of at least 1. As for AGTAGCCAGCACAGGACAGT, the remaining target (mRNA or protein) (fraction of control) is at least 1.

ATGAACAGCTACGATGAGCT showed a remaining target (mRNA or protein) (fraction of control) of 0.73. Same read-out and setting: the figure for ATGCAAACATATAGGAGTCA is at least 1. Still for that read-out and setting: with ATTAGTGGATGATCACCAAA the figure was 0.99; with ATTCCCATGCCGTCGTAAAA, at least 1; with ATTGAGTGCTTCAACCTGCT, at least 1. With CACACAGTTCCGGATATACT, the remaining target (mRNA or protein) (fraction of control) is at least 1. Consider CACCGCCCAGATGTCAAGGA, for which the remaining target (mRNA or protein) (fraction of control) is 0.5. The same measure, in the same setting: the figure for CAGCGCAAAGAGAGTGATGA is at least 1.

CATATTAGGAGACACTTGAA showed a remaining target (mRNA or protein) (fraction of control) of at least 1. CCATAACATCTGCTTAATAT: the remaining target (mRNA or protein) (fraction of control) is at least 1. With CTGGAAGAAAAGGTCTGACA, the remaining target (mRNA or protein) (fraction of control) is at least 1. On the same count and under the same terms, the figure for CTTCCCATGAATAGTCAAAC is 0.53; for GAGGATAACACATGGGTTCA it is at least 1.

GAGGTTGAACATTGGGTAAT: the remaining target (mRNA or protein) (fraction of control) was determined as 0.79. The same measure, in the same setting: with GATCCTTCAAGGAATCAAAT the figure was 0.91; with GATGTCTGCCATAGCAGGAG, at least 1. The same measure, in the same setting: with GGCATTATGAAACTGAAGCA the figure was at least 1; with GGCCAAATCTGAAGCAGCGC, at least 1; with GGGCAAAAGGAAATCCACAG, at least 1. Turning to GTCAATATCCATAAGGAGGT, the remaining target (mRNA or protein) (fraction of control) is at least 1. With TAAACACGTCCTGGCAGTTT, the remaining target (mRNA or protein) (fraction of control) is at least 1.

Consider TAAGGCAACATCCGAAGATC, for which the remaining target (mRNA or protein) (fraction of control) was 0.96. The same measure, in the same setting: the figure for TACATTTTCTTGATCTTGCA is at least 1; for TATAAGAAATGGTAGCTTCC it is at least 1; for TATTGAGAAAGTTCTTCATC it is 0.86. The same measure, in the same setting: the figure for TGCAACACATAATCATAGGG is at least 1; for TGCCAATTCATTTACTTTGA it is at least 1. On the same count and under the same terms, the figure for TGCTATCTGTGAATCCACCG is 0.99; for TGTAATATTATGTCTCCAGT it is 0.9.

In turn, TTCACTTTAGTAGTCCAGCT returned a remaining target (mRNA or protein) (fraction of control) of 0.89. Still for that read-out and setting: with TTCCCGAGGTACCTCCAACT the figure was 0.7.

The target of a further data set is PIK3CD. As to conditions: ASO.
On to CAGCCGAGAGCCAGGTGCAG, for which the remaining target (mRNA or protein) (fraction of control) is ≥ 1 and 0.59. On the same count and under the same terms, the figure for CAGGGGGCATCCTGCGTTGT is 0.85 and ≥ 1; for CCACCCCAGGGGGCATCCTG it is ≥ 1 and 0.37; for CCAGGGCTGGGAGGAGCCAC it is 0.91 and 0.69. The same measure, in the same setting: the figure for CCCCAGGGGGCATCCTGCGT is 0.81 and 0.96. On the same count and under the same terms, the figure for CCCCGGTCTTAAGCTGGTCC is 0.31 and 0.42; for CCTCCTCTTGGGCCCAGGGC it is ≥ 1 and 0.71. As for CCTCGGGAGGAGAACAGTCT, the remaining target (mRNA or protein) (fraction of control) is ≥ 1 and 0.45. CGGCCGCTCGTGCCGAATTC: the remaining target (mRNA or protein) (fraction of control) is 0.96 and ≥ 1.

As for CGGCTGCTCCAGGGACCACA, the remaining target (mRNA or protein) (fraction of control) is 0.63 and 0.38. Same read-out and setting: with CGTTGCTCGTCCTCCAGCTC the figure was 0.47 and 0.27; with CTGCGTTGTTACTTCCCAGA, ≥ 1 and 0.41; with CTGGGAGGAGCCACTACTGC, 0.99 and 0.6.

On to GATGACAGTTGTCCTCTCTG, for which the remaining target (mRNA or protein) (fraction of control) was 0.84 and 0.46. On the same count and under the same terms, with GCATCCTGCGTTGTTACTTC the figure was 0.89 and 0.35; with GCCACTACTGCCTGTTGTCT, 0.59 and 0.3. Same read-out and setting: with GCGCAGCTGGCAGGGCTGGG the figure was 0.86 and ≥ 1; with GCGGCACGTCCTTGGTGGAC, 0.93 and 0.54; with GGAAGCTGAAGTCTAGCAGC, 0.84 and 0.56. Still for that read-out and setting: the figure for GGACGGGCAGGAAGGGCTGC is ≥ 1 and 0.87.

On to GGAGCCACTACTGCCTGTTG, for which the remaining target (mRNA or protein) (fraction of control) was 0.86 and 0.31. With GGAGGAGCCACTACTGCCTG, the remaining target (mRNA or protein) (fraction of control) was 0.98 and 0.55. On the same count and under the same terms, with GGCAGATTAAAGATGCTTTA the figure was 0.9 and 0.48; with GGCAGTCCACCCCAGGGGGC, 0.76 and 0.56. Same read-out and setting: the figure for GGGCTGGGAGGAGCCACTAC is at least 1. Same read-out and setting: with GGGGCATCCTGCGTTGTTAC the figure was at least 1; with GTCGGTTCTTTCCCGTTAGG, 0.52 and 0.35; with TGGAATAGTCCAAGAAAGAC, at least 1.
